Where two headings read alike, the source gives them in different places.
How the values were obtained:
Human α-thrombin = target: T1, Human α-thrombin (Homo sapiens, UniProt P00734); assay: Inhibition of thrombin-catalyzed hydrolysis of chromogenic substrate S-2366 (inhibition constant Ki); format: biochemical; details: for Kd: KD (dissociation constant of open species = Ki x popen); for Ki: pH 7.6
T1 construct: Human α-thrombin was purchased from Haemotologic Technologies, Inc., VT, USA; purchased Haemotologic Technologies, Inc., VT, USA

[1] = Thermal unfolding of hairpin linkers (Tm, unfolded population punfold); format: physicochemical; details: calculated, two-state unfolding
Source text: Assuming a two-state unfolding of the trpzip linkers, the unfolded populations punfold=popen (Table 3) can be calculated using reported thermal characteristics of isolated trpzip peptides (Cochran 2001). It is important (Cochran 2001) to take into consideration bulk temperature dependences of the enthalpy and entropy differences between folded and unfolded states of trpzip peptides (Privalov 1997). Disregard for the appreciable ΔCp difference between folded and unfolded species would lead to particularly large underestimation of punfold for BTI5, since the bulk temperatures used for Ki determination were far from the trpzip4 folding transition point.
The punfold value for the BTI2 inhibitor was calculated using ΔH=11.6 kcal/mol and ΔS=39 cal/mol/K obtained in earlier studies of the gb1 peptide (Munoz 1997), which gives punfold values of 0.44 and 0.69 at 21° C. and 37° C., respectively. […] (Table 3). More importantly, all the KD values are close to those of BTI1 which contains a flexible (or random-coil) (GS)8 linker, which confirms the predicted small variation in KD values for bivalent ligands connected by flexible linkers of equal contour length and similar composition (Zhou 2001a; Zhou, 2001b).

Work on `CC[C@H](C)[C@H](NC(=O)[C@H](CCC(=O)O)NC(=O)[C@H](CCC(=O)O)NC(=O)[C@H](Cc1ccccc1)NC(=O)[C@H](CC(=O)O)NC(=O)CNC(=O)[C@H](CO)NC(=O)CNC(=O)[C@H](CO)NC(=O)CNC(=O)[C@H](CO)NC(=O)CNC(=O)[C@H](CO)NC(=O)CNC(=O)[C@H](CO)NC(=O)CNC(=O)[C@H](CO)NC(=O)CNC(=O)[C@H](CO)NC(=O)CNC(=O)[C@H](CO)NC(=O)CNC(=O)[C@H]1CCCCN1C(=O)[C@H](CCCNC(=N)N)NS(=O)(=O)c1ccc(C(C)(C)C)cc1)C(=O)N1CCC[C@H]1C(=O)N[C@@H](CCC(=O)O)C(=O)N[C@@H](CCC(=O)O)C(=O)N[C@@H](Cc1ccc(O)cc1)C(=O)N[C@@H](CC(C)C)C(=O)N[C@@H](CCC(N)=O)C(=O)O` [BTI1] yielded a Kd (Human α-thrombin; T = 21° C.) of 0.53 ± 0.03 nM, a Kd (Human α-thrombin; T = 37° C.) of 1.3 ± 0.3 nM and a Ki (Human α-thrombin; Ki, T = 21° C.) of 0.53 ± 0.03 nM. For the same compound, the Ki (Human α-thrombin; T = 37° C., read-out: Ki) was 1.3 ± 0.3 nM, the “punfold (population of unfolded/open linker)” value ([1]; T = 21° C.) was 1 and the “punfold (population of unfolded/open linker)” value ([1]; T = 37° C.) was 1.
